Test results reported in patent publication US6552196B2, “Quinolone carboxylic acid derivatives” (Dong Wha Pharmaceutical Industrial Co., Ltd., priority 1997, dated 2003).

Assays:
Format in all cases: cell-based
[1] = test system: Staphylococcus aureus 293; test: In vitro antibacterial activity against resistant strains (MIC); details: resistant strain Staphylococcus aureus 293; 2-fold agar dilution; methicillin resistant strains 48 hours at 30° C.
Description: (§1) 10^7 cfu/ml of bacteria were inoculated and cultured for 18 hours at 37° C. and then the antibacterial activities were measured. For the methicillin resistant strains the activities were measured after 48 hours of cultivation at 30° C. Hoechst Standard strains were used for the testings.

[2] = test system: Staphylococcus aureus 690E; test: as above; details: resistant strain Staphylococcus aureus 690E; 2-fold agar dilution; methicillin resistant strains 48 hours at 30° C.
Description: as §1

[3] = test system: Staphylococcus epidermidis 291; test: as above; details: resistant strain Staphylococcus epidermidis 291; 2-fold agar dilution; methicillin resistant strains 48 hours at 30° C.
Description: as §1

[4] = test system: Staphylococcus epidermidis 178; test: as above; details: resistant strain Staphylococcus epidermidis 178; 2-fold agar dilution; methicillin resistant strains 48 hours at 30° C.
Description: as §1

[5] = test system: Staphylococcus aureus 121E; test: as above; details: resistant strain Staphylococcus aureus 121E; 2-fold agar dilution; methicillin resistant strains 48 hours at 30° C.
Description: as §1

[6] = test system: Staphylococcus aureus 694E; test: as above; details: resistant strain Staphylococcus aureus 694E; 2-fold agar dilution; methicillin resistant strains 48 hours at 30° C.
Description: as §1

[7] = test system: Staphylococcus aureus 693E; test: as above; details: resistant strain Staphylococcus aureus 693E; 2-fold agar dilution; methicillin resistant strains 48 hours at 30° C.
Description: as §1

[8] = test system: Staphylococcus aureus 303; test: as above; details: resistant strain Staphylococcus aureus 303; 2-fold agar dilution; methicillin resistant strains 48 hours at 30° C.
Description: as §1

[9] = test system: Staphylococcus aureus 179; test: as above; details: resistant strain Staphylococcus aureus 179; 2-fold agar dilution; methicillin resistant strains 48 hours at 30° C.
Description: as §1

[10] = test system: Staphylococcus aureus 241; test: as above; details: resistant strain Staphylococcus aureus 241; 2-fold agar dilution; methicillin resistant strains 48 hours at 30° C.
Description: as §1

[11] = test system: Staphylococcus aureus 8236; test: as above; details: resistant strain Staphylococcus aureus 8236; 2-fold agar dilution; methicillin resistant strains 48 hours at 30° C.
Description: as §1

[12] = test system: Staphylococcus aureus 701E; test: as above; details: resistant strain Staphylococcus aureus 701E; 2-fold agar dilution; methicillin resistant strains 48 hours at 30° C.
Description: as §1

[13] = test system: Staphylococcus aureus 256E; test: as above; details: resistant strain Staphylococcus aureus 256E; 2-fold agar dilution; methicillin resistant strains 48 hours at 30° C.
Description: as §1

[14] = test system: Staphylococcus aureus 695E; test: as above; details: resistant strain Staphylococcus aureus 695E; 2-fold agar dilution; methicillin resistant strains 48 hours at 30° C.
Description: as §1

[15] = test system: Staphylococcus aureus 88E; test: as above; details: resistant strain Staphylococcus aureus 88E; 2-fold agar dilution; methicillin resistant strains 48 hours at 30° C.
Description: as §1

[16] = test system: Staphylococcus aureus 208E; test: as above; details: resistant strain Staphylococcus aureus 208E; 2-fold agar dilution; methicillin resistant strains 48 hours at 30° C.
Description: as §1

[17] = test system: Staphylococcus aureus 692E; test: as above; details: resistant strain Staphylococcus aureus 692E; 2-fold agar dilution; methicillin resistant strains 48 hours at 30° C.
Description: as §1

[18] = test system: Staphylococcus aureus 697E; test: as above; details: resistant strain Staphylococcus aureus 697E; 2-fold agar dilution; methicillin resistant strains 48 hours at 30° C.
Description: as §1

[19] = test system: Staphylococcus aureus 703E; test: as above; details: resistant strain Staphylococcus aureus 703E; 2-fold agar dilution; methicillin resistant strains 48 hours at 30° C.
Description: as §1

[20] = test system: Pseudomonas aeruginosa 1592E; test: In vitro antibacterial activity (MIC), agar dilution; details: 2-fold agar dilution, Muller-Hinton agar, 18 hours at 37° C.
Description: as §1

[21] = test system: Enterobacter clocae 1321E; test: as above; details: 2-fold agar dilution, Muller-Hinton agar, 18 hours at 37° C.
Description: as §1

[22] = test system: Pseudomonas aeruginosa 1771; test: as above; details: 2-fold agar dilution, Muller-Hinton agar, 18 hours at 37° C.
Description: as §1

[23] = test system: Staphylococcus aureus 285; test: as above; details: 2-fold agar dilution, Muller-Hinton agar, 18 hours at 37° C.
Description: as §1

[24] = test system: Klebsiella aerogenes 1522E; test: as above; details: 2-fold agar dilution, Muller-Hinton agar, 18 hours at 37° C.
Description: as §1

Esherichia coli DC2 = test: as above; details: 2-fold agar dilution, Muller-Hinton agar, 18 hours at 37° C.
Description: as §1

[25] = test system: Streptococcus pyogens 77A; test: as above; details: 2-fold agar dilution, Muller-Hinton agar, 18 hours at 37° C.
Description: as §1

Esherichia coli TEM = test: as above; details: 2-fold agar dilution, Muller-Hinton agar, 18 hours at 37° C.
Description: as §1

[26] = test system: Pseudomonas aeruginosa 1771M; test: as above
Description: as §1

Enterobacter clocae P99 = test: as above; details: 2-fold agar dilution, Muller-Hinton agar, 18 hours at 37° C.
Description: as §1

[27] = test system: Staphylococcus aureus 503; test: as above; details: 2-fold agar dilution, Muller-Hinton agar, 18 hours at 37° C.
Description: as §1

Esherichia coli 078 = test: as above; details: 2-fold agar dilution, Muller-Hinton agar, 18 hours at 37° C.
Description: as §1

Esherichia coli 1507E = test: as above; details: 2-fold agar dilution, Muller-Hinton agar, 18 hours at 37° C.
Description: as §1

[28] = test system: Staphylococcus aureus SG511; test: as above; details: 2-fold agar dilution, Muller-Hinton agar, 18 hours at 37° C.
Description: as §1

Salmonella typhimurium = test: as above; details: 2-fold agar dilution, Muller-Hinton agar, 18 hours at 37° C.
Description: as §1

Klebsiella oxytoca 1082E = test: as above; details: 2-fold agar dilution, Muller-Hinton agar, 18 hours at 37° C.
Description: as §1

[29] = test system: Streptococcus faecium MD 8b; test: as above; details: 2-fold agar dilution, Muller-Hinton agar, 18 hours at 37° C.
Description: as §1

Esherichia coli DC0 = test: as above; details: 2-fold agar dilution, Muller-Hinton agar, 18 hours at 37° C.
Description: as §1

[30] = test system: Streptococcus pyogens 308A; test: as above; details: 2-fold agar dilution, Muller-Hinton agar, 18 hours at 37° C.
Description: as §1

[31] = test system: Pseudomonas aeruginosa 9027; test: as above; details: 2-fold agar dilution, Muller-Hinton agar, 18 hours at 37° C.
Description: as §1

[32] = read-out: minimum inhibitory concentration (MIC)

## CON=C1CN(c2c(F)c(N)c3c(=O)c(C(=O)O)cn(C4CC4)c3c2F)CC12CNC2.CS(=O)(=O)O [Example 5, 1-Cyclopropyl-5-amino-6,8-difluoro-7-[8-(methoxyimino)-2,6-diazaspiro[3,41]oct-6-yl]-4-oxo-1,4-dihydro-3-quinolinecarboxylic acid methanesulfonate]
[1]
  minimum inhibitory concentration (MIC): 0.098 µg/mL
[2]
  minimum inhibitory concentration (MIC): 7 ng/mL
[3]
  minimum inhibitory concentration (MIC): 0.391 µg/mL
[4]
  minimum inhibitory concentration (MIC): 0.391 µg/mL
[5]
  minimum inhibitory concentration (MIC): 0.013 µg/mL
[6]
  minimum inhibitory concentration (MIC): 7 ng/mL
[7]
  minimum inhibitory concentration (MIC): 7 ng/mL
[8]
  minimum inhibitory concentration (MIC): 0.098 µg/mL
[9]
  minimum inhibitory concentration (MIC): 0.098 µg/mL
[10]
  minimum inhibitory concentration (MIC): 0.098 µg/mL
[11]
  minimum inhibitory concentration (MIC): 0.098 µg/mL
[12]
  minimum inhibitory concentration (MIC): 7 ng/mL
[13]
  minimum inhibitory concentration (MIC): 7 ng/mL
[14]
  minimum inhibitory concentration (MIC): 7 ng/mL
[15]
  minimum inhibitory concentration (MIC): 7 ng/mL
[16]
  minimum inhibitory concentration (MIC): 7 ng/mL
[17]
  minimum inhibitory concentration (MIC): 4 ng/mL
[18]
  minimum inhibitory concentration (MIC): <2 ng/mL
[19]
  minimum inhibitory concentration (MIC): 7 ng/mL
[20]
  minimum inhibitory concentration (MIC): 0.391 µg/mL
[21]
  minimum inhibitory concentration (MIC): 4 ng/mL
[22]
  minimum inhibitory concentration (MIC): 0.391 µg/mL
[23]
  minimum inhibitory concentration (MIC): 7 ng/mL
[24]
  minimum inhibitory concentration (MIC): 0.025 µg/mL
Esherichia coli DC2
  minimum inhibitory concentration (MIC): 0.013 µg/mL
[25]
  minimum inhibitory concentration (MIC): <2 ng/mL
Esherichia coli TEM
  minimum inhibitory concentration (MIC): 0.013 µg/mL
[26]; Pseudomonas aeruginosa 1771M, 2-fold agar dilution, Muller-Hinton agar, 18 hours at 37° C.
  minimum inhibitory concentration (MIC): 0.195 µg/mL
Enterobacter clocae P99
  minimum inhibitory concentration (MIC): 7 ng/mL
[27]
  minimum inhibitory concentration (MIC): <2 ng/mL
Esherichia coli 078
  minimum inhibitory concentration (MIC): <2 ng/mL
Esherichia coli 1507E
  minimum inhibitory concentration (MIC): 7 ng/mL
[28]
  minimum inhibitory concentration (MIC): <2 ng/mL
Salmonella typhimurium
  minimum inhibitory concentration (MIC): <2 ng/mL
Klebsiella oxytoca 1082E
  minimum inhibitory concentration (MIC): <2 ng/mL
[29]
  minimum inhibitory concentration (MIC): 0.025 µg/mL
Esherichia coli DC0
  minimum inhibitory concentration (MIC): 0.098 µg/mL
[30]
  minimum inhibitory concentration (MIC): 0.025 µg/mL
[31]
  minimum inhibitory concentration (MIC): 0.781 µg/mL

## CON=C1CN(c2cc3c(cc2F)c(=O)c(C(=O)O)cn3-c2ccc(F)cc2F)CC12CNC2.CS(=O)(=O)O.CS(=O)(=O)O [Example 6, 1-(2,4-Difluorophenyl)-6-fluoro-7-[8-(methoxyimino)-2,6-diazaspiro[3,4]oct-6-yl]-4-oxo-1,4-dihydro-3-quinolinecarboxylic acid dimethanesulfonate]
[20]; [32]
  MIC: 1.56 µg/mL
[21]; [32]
  MIC: 0.098 µg/mL
[22]; [32]
  MIC: 1.56 µg/mL
[23]; [32]
  MIC: 0.098 µg/mL
[24]; [32]
  MIC: 0.391 µg/mL
Esherichia coli DC2; [32]
  MIC: 0.098 µg/mL
[25]; [32]
  MIC: 0.013 µg/mL
Esherichia coli TEM; [32]
  MIC: 0.195 µg/mL
[26]; Pseudomonas aeruginosa, 1771M, 18 h, read-out: minimum inhibitory concentration (MIC)
  MIC: 1.56 µg/mL
Enterobacter clocae P99; [32]
  MIC: 0.098 µg/mL
[27]; [32]
  MIC: 0.049 µg/mL
Esherichia coli 078; [32]
  MIC: 0.049 µg/mL
Esherichia coli 1507E; [32]
  MIC: 0.195 µg/mL
[28]; [32]
  MIC: 0.049 µg/mL
Salmonella typhimurium; Salmonella enterica, read-out: minimum inhibitory concentration (MIC)
  MIC: 0.049 µg/mL
Klebsiella oxytoca 1082E; [32]
  MIC: 0.013 µg/mL
[29]; Enterococcus faecium, MD8B, read-out: minimum inhibitory concentration (MIC)
  MIC: 0.195 µg/mL
Esherichia coli DC0; [32]
  MIC: 0.781 µg/mL
[30]; [32]
  MIC: 0.195 µg/mL
[31]; [32]
  MIC: 3.12 µg/mL
